Data reported in patent US11040987B2 (TenNor Therapeutics Limited, priority 2019, dated 2021).
Converted amounts (≈) assume the structure as drawn.

Key:
Format in all cases: cell-based
[1] = test system: Escherichia coli ATCC 25922; test: MIC determination, broth microdilution, ESKAPE panel; settings: ATCC25922, iron-depleted cation-adjusted Mueller-Hinton broth, 2,2-dipyridyl 160 μM, 37° C., 18-20 hours, read-out: MIC E. coli ATCC 25922
Experimental: (§1) Minimum inhibitory concentration (MIC) is determined by a broth microdilution method according to the recommendation of the Clinical and Laboratory Standards Institute (CLSI) with minor modification. […] Strains of an ESKAPE panel (E. faecium ATCC 700221, S. aureus ATCC 29213, K. pneumoniae ATCC 43816, A. baumannii ATCC 19606, P. aeruginosa ATCC 27853 and Escherichia coli ATCC 25922) were obtained originally from the American Type Culture Collection (ATCC) and used for MIC determinations of compounds. The bacteria inoculum in the test is […].

E. faecium ATCC 700221 = test: as above; settings: Enterococcus faecium, ATCC700221; iron-depleted cation-adjusted Mueller-Hinton broth, 2,2-dipyridyl 160 μM; 37° C., 18-20 hours; read-out: MIC E. faecium ATCC 700221
Experimental: as §1

P. aeruginosa ATCC 27853 = test: as above; settings: Pseudomonas aeruginosa, ATCC27853; iron-depleted cation-adjusted Mueller-Hinton broth, 2,2-dipyridyl 160 μM; 37° C., 18-20 hours; read-out: MIC P. aeruginosa ATCC 27853
Experimental: as §1

K. pneumoniae ATCC 43816 = test: as above; settings: Klebsiella pneumoniae, ATCC43816; iron-depleted cation-adjusted Mueller-Hinton broth, 2,2-dipyridyl 160 μM; 37° C., 18-20 hours; read-out: MIC K. pneumoniae ATCC 43816
Experimental: as §1

A. baumannii ATCC 19606 = test: as above; settings: Acinetobacter baumannii, ATCC19606; iron-depleted cation-adjusted Mueller-Hinton broth, 2,2-dipyridyl 160 μM; 37° C., 18-20 hours; read-out: MIC A. baumannii ATCC 19606
Experimental: as §1

S. aureus ATCC 29213 = test: as above; settings: Staphylococcus aureus, ATCC29213; iron-depleted cation-adjusted Mueller-Hinton broth, 2,2-dipyridyl 160 μM; 37° C., 18-20 hours; read-out: MIC S. aureus ATCC 29213
Experimental: as §1

A.b TNP 41709 = test: MIC against A. baumannii clinical isolates, alone and in combination with antibiotics; settings: for MIC: Acinetobacter baumannii, TNP41709, Compounds alone, read-out: MIC A.b TNP 41709
A.b TNP 41708 = test: as above; settings: for MIC: Acinetobacter baumannii, TNP41708, read-out: MIC A.b TNP 41708
Experimental: as §1

A.b TNP 41704 = test: as above; settings: for MIC: Acinetobacter baumannii, TNP41704, Compounds alone, read-out: MIC A.b TNP 41704

Compound | MIC [1] [µg/mL] | MIC (E. faecium ATCC 700221) [µg/mL] | MIC (P. aeruginosa ATCC 27853) [µg/mL] | MIC (K. pneumoniae ATCC 43816) [µg/mL] | MIC (A. baumannii ATCC 19606) [µg/mL] | MIC (S. aureus ATCC 29213) [µg/mL] | MIC (A.b TNP 41709) [µg/mL] | MIC A.b TNP 41709 (A.b TNP 41709; Compounds + meropenem (1:1)) [µg/mL] | MIC A.b TNP 41709 (A.b TNP 41709; Compounds + sulbactam (1:1)) [µg/mL] | MIC (A.b TNP 41708) [µg/mL] | MIC A.b TNP 41708 (A.b TNP 41708; Compounds + meropenem (1:1)) [µg/mL] | MIC A.b TNP 41708 (A.b TNP 41708; Compounds + sulbactam (1:1)) [µg/mL] | MIC (A.b TNP 41704) [µg/mL] | MIC A.b TNP 41704 (A.b TNP 41704; Compounds + meropenem (1:1)) [µg/mL] | MIC A.b TNP 41704 (A.b TNP 41704; Compounds + sulbactam (1:1)) [µg/mL]
CN(NC(=O)OC[C@@]1(C)[C@H](C(=O)O)N2C(=O)C[C@H]2S1(=O)=O)C(=O)c1ccc(O)c(O)c1Cl [Example 77] | 64 (≈ 130 µM) | > 128 | > 128 | 16 (≈ 32.5 µM) | 0.25 (≈ 0.508 µM) | > 128 | > 128 | 16 | 16 | > 128 | 32 | 32 | > 128 | 16 | 8
COc1ccc(C(=O)N/N=C/[C@@]2(C)[C@H](C(=O)O)N3C(=O)C[C@H]3S2(=O)=O)cc1 [Example 35, (2S,3R,5R)-3-((E)-(2-(4-methoxybenzoyl)hydrazono)methyl)-3-methyl-7-oxo-4-thia-1-azabicyclo[3.2.0]heptane-2-carboxylic acid 4,4-dioxide] | > 128 | > 128 | > 128 | > 128 | > 128 | 128 (≈ 324 µM) | > 128 | 32 | 4 | > 128 | 1 | 16 | > 128 | 32 | 4
C[C@]1(COC(=O)c2ccc(O)c(O)c2Cl)[C@H](C(=O)O)N2C(=O)C[C@H]2S1(=O)=O [Example 114, (2S,3R,5R)-3-(((2-chloro-3,4-dihydroxybenzoyl)oxy)methyl)-3-methyl-7-oxo-4-thia-1-azabicyclo[3.2.0]heptane-2-carboxylic acid 4,4-dioxide] | 8 (≈ 19.1 µM) | > 128 | > 128 | 2 (≈ 4.76 µM) | < 0.06 | 16 (≈ 38.1 µM) | > 128 | 64 | 16 | > 128 | 64 | 32 | > 128 | 64 | 8
C[C@H](NC(=O)c1ccc(O)c(O)c1Cl)C(=O)N/N=C/[C@@]1(C)[C@H](C(=O)O)N2C(=O)C[C@H]2S1(=O)=O [Example 62, (2S,3R,5R)-3-((E)-(2-((S)-2-(2-chloro-3,4-dihydroxybenzamido)propanoyl)hydrazono)methyl)-3-methyl-7-oxo-4-thia-1-azabicyclo[3.2.0]heptane-2-carboxylic acid 4,4-dioxide] | > 128 | > 128 | > 128 | > 128 | 4 (≈ 7.95 µM) | 128 (≈ 255 µM) | > 128 | 2 | 2 | > 128 | 4 | 8 | > 128 | 4 | 8
CN(NC(=O)c1ccc(O)c(O)c1Cl)C(=O)OC[C@@]1(C)[C@H](C(=O)O)N2C(=O)C[C@H]2S1(=O)=O [Example 80, (2S,3R,5R)-3-(((2-(2-chloro-3,4-dihydroxybenzoyl)-1-methylhydrazinecarbonyl)oxy)methyl)-3-methyl-7-oxo-4-thia-1-azabicyclo[3.2.0]heptane-2-carboxylic acid 4,4-dioxide] | 64 (≈ 130 µM) | > 128 | > 128 | 16 (≈ 32.5 µM) | 0.25 (≈ 0.508 µM) | > 128 | > 128 | 32 | 8 | > 128 | 64 | 32 | > 128 | 16 | 4
